# From patent US12384817B2, “Peptide having protective activity against cell damage caused by particulate matter, and uses for same” (CAREGEN CO., LTD., priority 2020, dated 2025)
# No end group written: not given here.
# Key:
# cytochrome P450 [1] = assay: Cytochrome P450 activity in particulate matter-treated HaCaT cells (P450-Glo Assay); assay type: cell-based; conditions: HaCaT human keratinocytes; peptide pretreatment 1 hour at 20, 100, 200 μM; then 50 μg/cm^2 urban particulate matter 24 hours; FIG. 3
# From the text: When polyaromatic hydrocarbons (PAHs) present in particulate matter penetrate into cells and bind to AHR, it promotes nuclear translocation of AHR. It is known that the AHR translocated into the nucleus forms a complex AHR/ARNT with an AHR nuclear translocator (ARNT), and this complex act as a transcription factor to promote the expression of cytochrome P450 (CYPs). In order to confirm the effect of the synthesized peptide in inhibiting cell damage caused by particulate matter, an experiment was performed for confirming whether the peptide inhibits the activity of cytochrome P450 after the cells were treated with particulate matter.
# (§1) First, HaCaT cells, which are human keratinocytes, were seeded into a 96-well plate at a density of 1×10^4 cells/well. After overnight incubation, the media were replaced with serum-free media. The keratinocytes, HaCaT were pretreated with the synthesized peptides for 1 hour at each concentration (20 μM, 100 μM, and 200 μM). Then, the cells were treated with 50 μg/cm^2 of urban particulate matter (Sigma, NIST1648A) for 24 hours. After the keratinocytes were collected, the activity of cytochrome P450 was measured using P450-Glo™ Assay kit (Promega).
# cytochrome P450 [2] = assay: Cytochrome P450 activity in particulate matter-treated A549 cells (P450-Glo Assay); assay type: cell-based; conditions: A549 human alveolar epithelial cells; peptide pretreatment 1 hour at 20, 100, 200 μM; then 50 μg/cm^2 urban particulate matter 24 hours; FIG. 4
# Description: In addition, in order to confirm whether the peptide can suppress respiratory damage caused by particulate matter, an experiment for measuring the activity of cytochrome P450 was also performed on A549 cells, which are human alveolar epithelial cells.
# as §1, with “human alveolar epithelial” for “HaCaT”, “A549 cells” for “which are human keratinocytes,”, “1.2×10^4” for “1×10^4”, “alveolar epithelial cells, A549 cells” for “keratinocytes, HaCaT”, “treated cells” for “keratinocytes”
sequence,measurement,setting,value
"SSNAEVLALF [SEQ ID NO: 1, SSNAEVLALF]",activity of cytochrome P450 increased by the treatment of particulate matter,cytochrome P450 [1],reduced in a concentration dependent manner
same,activity of cytochrome P450 increased by the treatment of particulate matter,cytochrome P450 [2],reduced in a concentration dependent manner
